Measurements published in US20080051438A1, “Preventive/Therapeutic Compositions Useful for Treating Cardiovascular Diseases” (priority 2006, published 2008).
Marks after values point to notes of the source that are not given here.

Key:
Assay type in all cases: in vivo, human
hypertensive patients [1] = assay: Special investigation of combined use of cilnidipine and ARB: degree of the blood pressure controls judged by the doctor (efficacy ratio); set-up: concentration or dose not given beside the values
Experimental: (§1) A special investigation was conducted in various medical centers, compiled, and analyzed to evaluate the safety and availability of the combined use of cilnidipine and at least one angiotensin II receptor blocker.
(§2) The subjects of the investigation were hypertensive patients which were adapted to cilnidipine. Combined administration of cilnidipine and ARB was started for the treatment of hypertension in these patients.
(§3) A prospective continuous investigation method was conducted. Such a method is continuously conducted with the registered cases with the combined administration of cilnidipine (Atelec®) and ARB, until the number of cases reaches the contracted cases for each center.
(§4) Regarding the administration method of cilnidipine, 5 to 10 mg of cilnidipine was orally administered after breakfast once a day. Meanwhile, the amount may increase or decrease depending on patient's age, symptoms, or the like. When the effect is insufficient, the amount can be increased to 20 mg once a day. The dosing period of cilnidipine was set to 12 weeks in principle.
(§5) The following items were tracked during the investigation: patient's background (sex), existence or nonexistence of previous therapeutic agents and the content thereof, targeted blood pressure (systolic BP/diastolic BP), the conditions of administration of cilnidipine and ARB, antihypertensives used in combination (those other than cilnidipine or ARB), clinical course (systolic BP/diastolic BP/heart rate), and occurrence of side-effects. As for the availability of the combined administration, in the 12th week after starting the combined administration, the doctor in attendance judged the degree of the blood pressure controls on a three-point scale of “well-controlled”, “nearly well-controlled” and “poorly-controlled”, referring to the changes in the systolic and diastolic BP. As for the safety and availability analysis for each patient background, Fisher's exact probability test or the X^2 test was used. As for the blood pressure and heart rate, the average value and the standard deviation were calculated for the subjects before the combined administration (within 4 weeks before starting the combined administration), and data after starting the combined administration were determined on each observation day, and analysis was conducted by using a paired t-test. The test was conducted as the two-sided test and less than 5% of the risk rate was regarded as significant. Furthermore, side-effects were compiled based on the naming of preferred terms (PT) of MedDRA/J ver 8.0.
As the index of availability, in the 12th week after starting the combined administration, the doctor in attendance judged the degree of the blood pressure controls on a three-point scale of “well-controlled”, “nearly well-controlled” and “poorly-controlled”.
(1) Among the 2919 cases in the availability analysis, 42 cases in which the degree of the blood pressure controls was not described, and 168 cases which could not be judged, were excluded. In the other 2709 cases, the ratio of number of cases judged as “nearly well-controlled” or higher was calculated as the efficacy ratio. Accordingly, the efficacy ratio of the subject cases in the availability analysis was 84.8% (2298 cases/2709 cases).

hypertensive patients [2] = assay: Special investigation of combined use of cilnidipine and ARB: changes in systolic and diastolic blood pressure; settings: for diastolic BP, aft. / systolic BP, aft. / diastolic BP, bef. / systolic BP, bef.: all availability cases; for diastolic BP, bef. use / systolic BP, bef. use / diastolic BP, aft. use / systolic BP, aft. use: only ARB
Experimental: as §1, §2, §3, §4, §5
Table 7 and FIG. 2 show the number of cases for which the blood pressure was measured, and the changes in the measured values of systolic BP, diastolic BP, and heart rate were measured at the following time points: before starting the combined administration, 4 weeks, 8 weeks, and 12 weeks after starting the combined administration, and the last measurement, […] administration, n=2919). […] Then, it continued to slowly decrease, and the a stable change was seen up to 12 weeks after the start.

hypertensive patients [3] = assay: Special investigation of combined use of cilnidipine and ARB: changes in heart rate; settings: for heart rate after starting the combined administration / heart rate after starting the combined use: 12 weeks and later up to last measurement; for heart rate, aft. / heart rate, bef.: all availability cases; for heart rate, bef. use / heart rate, aft. use: only ARB
Experimental: as §1, §2, §3, §4, §5
Table 7 and FIG. 2 show the number of cases for which the blood pressure was measured, and the changes in the measured values of systolic BP, diastolic BP, and heart rate were measured at the following time points: before starting the combined administration, 4 weeks, 8 weeks, and 12 weeks after starting the combined administration, and the last measurement, which was 222.43 days in average from the start of the combined administration, n=2919). […] Then, it continued to slowly decrease, and the a stable change was seen up to 12 weeks after the start.

hypertensive patients [4] = assay: Special investigation of combined use of cilnidipine and ARB: changes in systolic and diastolic blood pressure; settings: only ARB, then cilnidipine singularly added; last measurement (222.03±143.88 days)
[5] = cilnidipine + ARB, 4 wks after use
[6] = cilnidipine + ARB, 8 wks after use
[7] = cilnidipine + ARB, 12 wks after use
[8] = cilnidipine + ARB, before combined use, 2,586 cases
[9] = cilnidipine + ARB, last measurement (222.43 days in average)
[10] = value before combined use of the 840 cases measured at 8 wks
[11] = value before combined use of the 950 cases measured at 12 wks
[12] = value before combined use of the 1,131 cases measured at 4 wks
[13] = value before combined use of the 2,565 cases with last measurement
[14] = then cilnidipine added, value before combined use of the 338 cases measured at 8 wks
[15] = then cilnidipine added, value before combined use of the 360 cases measured at 12 wks
[16] = then cilnidipine added, value before combined use of the 453 cases measured at 4 wks
[17] = then cilnidipine added, value before combined use of the 1,047 cases with last measurement
[18] = then cilnidipine singularly added, 4 wks after the use
[19] = then cilnidipine singularly added, 8 wks after the use
[20] = then cilnidipine singularly added, 12 wks after the use
[21] = then cilnidipine singularly added, before combined use, 1,055 cases
[22] = then cilnidipine singularly added, last measurement (222.03±143.88 days)
[23] = all availability cases with heart rate 75 or higher and less than 85 beats/min. before combined use
[24] = all availability cases with heart rate 85 beats/min. or higher before combined use
[25] = only ARB then cilnidipine added, cases with heart rate 75 or higher and less than 85 beats/min. before combined use
[26] = only ARB then cilnidipine added, cases with heart rate 85 beats/min. or higher before combined use

In the case of COCCOC(=O)C1=C(C)NC(C)=C(C(=O)OC/C=C/c2ccccc2)C1c1cccc([N+](=O)[O-])c1 (racemic) [cilnidipine, 2-methoxyethyl-3-phenyl-2(E)-propenyl(±)-1,4-dihydro-2,6-dimethyl-4-(3-nitrophenyl)-3,5-pyridinedicarboxylate], the “efficacy ratio (cases judged nearly well-controlled or higher)” value (hypertensive patients [1]; all subject cases in the availability analysis, 12th week after starting cilnidipine + ARB, 2298 cases/2709 cases) is reported as 84.8%, the “efficacy ratio (cases judged nearly well-controlled or higher)” value (hypertensive patients [1]; cases on ARB alone, cilnidipine additionally administered (antihypertensives ARB and cilnidipine only)) is reported as 86.4% and the “diastolic BP, aft.” value (hypertensive patients [2]; [5]) is reported as 80.44 ± 11.30 mmHg. For the same molecule, the “systolic BP, aft.” value (hypertensive patients [2]; [5]) was 144.31 ± 16.64 mmHg, the “diastolic BP, aft.” value (hypertensive patients [2]; [6]) was 78.69 ± 10.99 mmHg and the “systolic BP, aft.” value (hypertensive patients [2]; [6]) was 142.28 ± 17.41 mmHg. The “diastolic BP, aft.” value (hypertensive patients [2]; [7]) was 78.64 ± 11.39 mmHg, the “systolic BP, aft.” value (hypertensive patients [2]; [7]) was 140.57 ± 16.45 mmHg and the “diastolic BP, bef.” value (hypertensive patients [2]; [8]) was 89.49 ± 13.09 mmHg. The “systolic BP, bef.” value (hypertensive patients [2]; [8]) was 162.21 ± 19.21 mmHg, the “diastolic BP, aft.” value (hypertensive patients [2]; [9]) was 78.78 ± 10.68 mmHg and the “systolic BP, aft.” value (hypertensive patients [2]; [9]) was 139.67 ± 16.47 mmHg. The “diastolic BP, bef.” value (hypertensive patients [2]; [10]) was 88.22 ± 13.53 mmHg, the “systolic BP, bef.” value (hypertensive patients [2]; [10]) was 161.13 ± 18.47 mmHg and the “diastolic BP, bef.” value (hypertensive patients [2]; [11]) was 88.56 ± 13.48 mmHg. The “systolic BP, bef.” value (hypertensive patients [2]; [11]) was 161.63 ± 18.58 mmHg, the “diastolic BP, bef.” value (hypertensive patients [2]; [12]) was 88.80 ± 12.94 mmHg and the “systolic BP, bef.” value (hypertensive patients [2]; [12]) was 161.96 ± 19.46 mmHg. For the same molecule, the “diastolic BP, bef.” value (hypertensive patients [2]; [13]) was 89.51 ± 13.09 mmHg, the “systolic BP, bef.” value (hypertensive patients [2]; [13]) was 162.19 ± 19.11 mmHg and the “diastolic BP, bef. use” value (hypertensive patients [2]; [14]) was 90.63 ± 13.13 mmHg. The “systolic BP, bef. use” value (hypertensive patients [2]; [14]) was 162.45 ± 16.04 mmHg, the “diastolic BP, bef. use” value (hypertensive patients [2]; [15]) was 90.26 ± 12.40 mmHg and the “systolic BP, bef. use” value (hypertensive patients [2]; [15]) was 161.92 ± 15.66 mmHg. The “diastolic BP, bef. use” value (hypertensive patients [2]; [16]) was 90.72 ± 12.00 mmHg, the “systolic BP, bef. use” value (hypertensive patients [2]; [16]) was 163.61 ± 15.91 mmHg and the “diastolic BP, bef. use” value (hypertensive patients [2]; [17]) was 91.31 ± 11.47 mmHg. The “systolic BP, bef. use” value (hypertensive patients [2]; [17]) was 163.11 ± 16.40 mmHg, the “diastolic BP, aft. use” value (hypertensive patients [2]; [18]) was 81.47 ± 10.51^b mmHg and the “systolic BP, aft. use” value (hypertensive patients [2]; [18]) was 143.91 ± 15.39^b mmHg. For the same molecule, the “diastolic BP, aft. use” value (hypertensive patients [2]; [19]) was 79.75 ± 10.37^b mmHg, the “systolic BP, aft. use” value (hypertensive patients [2]; [19]) was 140.97 ± 15.94^b mmHg and the “diastolic BP, aft. use” value (hypertensive patients [2]; [20]) was 79.71 ± 11.23^b mmHg. The “systolic BP, aft. use” value (hypertensive patients [2]; [20]) was 140.09 ± 15.37^b mmHg, the “diastolic BP, bef. use” value (hypertensive patients [2]; [21]) was 91.26 ± 11.48 mmHg and the “systolic BP, bef. use” value (hypertensive patients [2]; [21]) was 163.09 ± 16.36 mmHg. For the same molecule, the “diastolic BP, aft. use” value (hypertensive patients [2]; [22]) was 79.68 ± 10.68^b mmHg, the “heart rate before starting the combined use” value (hypertensive patients [3]; [23]) was 79.19±2.73 beats/min and the “heart rate after starting the combined administration” value (hypertensive patients [3]; [23]) was 76.28±8.93 beats/min. For the same molecule, the “heart rate before starting the combined use” value (hypertensive patients [3]; [24]) was 93.48±7.28 beats/min, the “heart rate after starting the combined administration” value (hypertensive patients [3]; [24]) was 84.57±11.17 beats/min and the “heart rate, aft.” value (hypertensive patients [3]; [5]) was 73.80 ± 10.80 beat/min. For the same molecule, the “heart rate, aft.” value (hypertensive patients [3]; [6]) was 72.87 ± 10.53 beat/min, the “heart rate, aft.” value (hypertensive patients [3]; [7]) was 73.61 ± 10.57 beat/min and the “heart rate, bef.” value (hypertensive patients [3]; cilnidipine + ARB, before combined use, 1,815 cases) was 75.40 ± 11.47 beat/min. For the same molecule, the “heart rate, aft.” value (hypertensive patients [3]; [9]) was 73.18 ± 10.37 beat/min, the “heart rate, bef.” value (hypertensive patients [3]; value before combined use of the 557 cases measured at 8 wks) was 73.83 ± 10.49 beat/min and the “heart rate, bef.” value (hypertensive patients [3]; value before combined use of the 664 cases measured at 12 wks) was 75.33 ± 10.98 beat/min. The “heart rate, bef.” value (hypertensive patients [3]; value before combined use of the 765 cases measured at 4 wks) was 75.06 ± 11.46 beat/min, the “heart rate, bef.” value (hypertensive patients [3]; value before combined use of the 1,615 cases with last measurement) was 75.18 ± 11.30 beat/min and the “heart rate before starting the combined use” value (hypertensive patients [3]; [25]) was 79.24±2.71 beats/min. For the same molecule, the “heart rate after starting the combined use” value (hypertensive patients [3]; [25]) was 76.87±8.37 beats/min, the “heart rate before starting the combined use” value (hypertensive patients [3]; [26]) was 93.64±6.90 beats/min and the “heart rate after starting the combined use” value (hypertensive patients [3]; [26]) was 84.30±10.58 beats/min. For the same molecule, the “heart rate, bef. use” value (hypertensive patients [3]; then cilnidipine added, value before combined use of the 229 cases measured at 8 wks) was 72.97 ± 10.16 beat/min, the “heart rate, bef. use” value (hypertensive patients [3]; then cilnidipine added, value before combined use of the 249 cases measured at 12 wks) was 73.98 ± 10.44 beat/min and the “heart rate, bef. use” value (hypertensive patients [3]; then cilnidipine added, value before combined use of the 308 cases measured at 4 wks) was 73.40 ± 10.54 beat/min. For the same molecule, the “heart rate, bef. use” value (hypertensive patients [3]; then cilnidipine added, value before combined use of the 648 cases with last measurement) was 74.26 ± 10.58 beat/min, the “heart rate, aft. use” value (hypertensive patients [3]; [18]) was 72.49 ± 10.25^a beat/min and the “heart rate, aft. use” value (hypertensive patients [3]; [19]) was 72.62 ± 10.60 beat/min. For the same molecule, the “heart rate, aft. use” value (hypertensive patients [3]; [20]) was 72.54 ± 10.28^a beat/min, the “heart rate, bef. use” value (hypertensive patients [3]; then cilnidipine singularly added, before combined use, 738 cases) was 74.46 ± 10.76 beat/min and the “heart rate, aft. use” value (hypertensive patients [3]; [22]) was 73.24 ± 10.51^a beat/min. The “systolic BP, aft. use” value (hypertensive patients [4]) was 139.73 ± 15.77^b mmHg.
